Earlier results on 1 compound are cited in US7595079B2, “Nutritional conjunctive support therapy for recovery in animals following stress or illness” (Bomac Vets Plus, Inc., priority 2005, dated 2009).

Data set [1] concerns jejunum crypt. Particulars: malnourished rats; target value ≦150.
Data set [2] relates to small intestinal crypt. To be noted: E. coli induced diarrhea in calves; target value ≦100.
Data set [3] relates to jejunum villus. Particulars: weaning of pigs; target value ≧339.

For `NC(=O)CC[C@H](N)C(=O)O` [Glutamine], in data set [1], the “Jejunum Crypt depth” value is 134 um. In data set [2], the “Mid plus Distal small intestinal Crypt width (mean % of baseline control)” value is reported as 92.2 mean % of baseline control. Also, in data set [3], the “Jejunum Villus Height” value is 358 um.
